Results: publication PMC9851200, “Multiparameter phenotypic screening for endogenous TFEB and TFE3 translocation identifies novel chemical series modulating lysosome function” (Autophagy, 2022)

Tests used:
[1] = test system: endogenous TFEB; test: TFEB nuclear translocation, immunocytochemistry high-content imaging; assay type: cell-based; settings: PKIS2 primary screening; note: test concentration or dose not given here
[2] = test system: SH-SY5Y cells; settings: PKIS2 primary screening; for DQ Intensity: DQ Red BSA intensity; for DQ Spot: DQ Red BSA spot count; for all read-outs here: reference of the scale not given here
[3] = molecular target: T1, PRKD1 (Homo sapiens, UniProt Q15139); settings: cited from earlier work
T1 sequence (Q15139 1-912): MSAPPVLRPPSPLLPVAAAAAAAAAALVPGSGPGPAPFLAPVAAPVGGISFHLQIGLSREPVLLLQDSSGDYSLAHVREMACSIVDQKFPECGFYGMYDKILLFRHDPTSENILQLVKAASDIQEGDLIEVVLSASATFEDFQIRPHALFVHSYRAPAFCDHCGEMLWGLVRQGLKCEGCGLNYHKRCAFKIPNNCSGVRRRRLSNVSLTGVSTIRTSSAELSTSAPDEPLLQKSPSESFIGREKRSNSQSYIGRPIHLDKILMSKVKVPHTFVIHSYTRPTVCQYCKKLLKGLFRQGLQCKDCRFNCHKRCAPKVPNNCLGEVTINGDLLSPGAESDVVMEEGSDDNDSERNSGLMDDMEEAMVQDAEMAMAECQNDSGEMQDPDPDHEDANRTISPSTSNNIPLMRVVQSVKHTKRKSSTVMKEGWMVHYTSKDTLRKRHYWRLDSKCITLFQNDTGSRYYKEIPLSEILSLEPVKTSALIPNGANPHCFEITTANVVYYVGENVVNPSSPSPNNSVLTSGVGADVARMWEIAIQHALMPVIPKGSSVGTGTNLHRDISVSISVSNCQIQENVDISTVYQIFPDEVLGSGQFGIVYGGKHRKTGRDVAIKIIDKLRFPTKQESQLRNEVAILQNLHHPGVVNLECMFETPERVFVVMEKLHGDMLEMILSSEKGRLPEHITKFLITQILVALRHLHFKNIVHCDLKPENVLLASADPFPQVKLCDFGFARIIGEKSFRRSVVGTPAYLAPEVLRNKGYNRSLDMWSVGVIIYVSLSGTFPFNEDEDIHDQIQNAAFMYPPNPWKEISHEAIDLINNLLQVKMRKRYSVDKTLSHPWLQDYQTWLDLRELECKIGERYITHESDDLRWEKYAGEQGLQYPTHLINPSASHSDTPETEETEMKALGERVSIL

[4] = molecular target: CDC42BPB/MRCKB (Homo sapiens, UniProt Q9Y5S2); settings: cited from earlier work
[5] = molecular target: CIT (Homo sapiens, UniProt O14578); settings: cited from earlier work
[6] = molecular target: T2, ACVR1B (Homo sapiens, UniProt P36896); settings: cited from earlier work
T2 sequence (P36896 24-505): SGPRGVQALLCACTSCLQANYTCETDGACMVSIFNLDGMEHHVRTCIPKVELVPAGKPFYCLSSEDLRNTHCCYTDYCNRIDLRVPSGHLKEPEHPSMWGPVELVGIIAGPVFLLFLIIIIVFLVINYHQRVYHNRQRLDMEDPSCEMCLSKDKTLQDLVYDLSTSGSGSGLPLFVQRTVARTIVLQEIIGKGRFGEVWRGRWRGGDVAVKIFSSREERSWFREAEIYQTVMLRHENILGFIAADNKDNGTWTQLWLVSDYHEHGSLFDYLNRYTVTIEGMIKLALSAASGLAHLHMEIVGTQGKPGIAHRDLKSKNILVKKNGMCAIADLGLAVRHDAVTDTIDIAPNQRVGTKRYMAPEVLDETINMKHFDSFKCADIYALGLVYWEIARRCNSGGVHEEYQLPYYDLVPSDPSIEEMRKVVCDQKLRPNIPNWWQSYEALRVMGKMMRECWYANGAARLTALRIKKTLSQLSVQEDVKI

[7] = molecular target: TGFBR2 (Homo sapiens, UniProt P37173); settings: cited from earlier work
[8] = molecular target: CSNK1E (Homo sapiens, UniProt P49674); settings: cited from earlier work
[9] = molecular target: T3, JAK1(JH2) (Homo sapiens, UniProt P23458); settings: cited from earlier work
T3 construct: JAK1(JH2)

[10] = molecular target: PIKFYVE (Homo sapiens, UniProt Q9Y2I7); settings: cited from earlier work
[11] = molecular target: BMPR1B (Homo sapiens, UniProt O00238); settings: cited from earlier work
[12] = molecular target: MTOR (Homo sapiens, UniProt P42345); settings: cited from earlier work
[13] = test system: SH-SY5Y cells; test: AK (adenylate kinase) release ToxiLight cytotoxicity assay; settings: PKIS2 primary screening; note: reference of the scale not given here
[14] = test system: SH-SY5Y cells; test: Nuclear count from microscopy images (cellular growth and toxicity); settings: PKIS2 primary screening; note: reference of the scale not given here

Sequence of CDC42BPB/MRCKB (Q9Y5S2 whole entry): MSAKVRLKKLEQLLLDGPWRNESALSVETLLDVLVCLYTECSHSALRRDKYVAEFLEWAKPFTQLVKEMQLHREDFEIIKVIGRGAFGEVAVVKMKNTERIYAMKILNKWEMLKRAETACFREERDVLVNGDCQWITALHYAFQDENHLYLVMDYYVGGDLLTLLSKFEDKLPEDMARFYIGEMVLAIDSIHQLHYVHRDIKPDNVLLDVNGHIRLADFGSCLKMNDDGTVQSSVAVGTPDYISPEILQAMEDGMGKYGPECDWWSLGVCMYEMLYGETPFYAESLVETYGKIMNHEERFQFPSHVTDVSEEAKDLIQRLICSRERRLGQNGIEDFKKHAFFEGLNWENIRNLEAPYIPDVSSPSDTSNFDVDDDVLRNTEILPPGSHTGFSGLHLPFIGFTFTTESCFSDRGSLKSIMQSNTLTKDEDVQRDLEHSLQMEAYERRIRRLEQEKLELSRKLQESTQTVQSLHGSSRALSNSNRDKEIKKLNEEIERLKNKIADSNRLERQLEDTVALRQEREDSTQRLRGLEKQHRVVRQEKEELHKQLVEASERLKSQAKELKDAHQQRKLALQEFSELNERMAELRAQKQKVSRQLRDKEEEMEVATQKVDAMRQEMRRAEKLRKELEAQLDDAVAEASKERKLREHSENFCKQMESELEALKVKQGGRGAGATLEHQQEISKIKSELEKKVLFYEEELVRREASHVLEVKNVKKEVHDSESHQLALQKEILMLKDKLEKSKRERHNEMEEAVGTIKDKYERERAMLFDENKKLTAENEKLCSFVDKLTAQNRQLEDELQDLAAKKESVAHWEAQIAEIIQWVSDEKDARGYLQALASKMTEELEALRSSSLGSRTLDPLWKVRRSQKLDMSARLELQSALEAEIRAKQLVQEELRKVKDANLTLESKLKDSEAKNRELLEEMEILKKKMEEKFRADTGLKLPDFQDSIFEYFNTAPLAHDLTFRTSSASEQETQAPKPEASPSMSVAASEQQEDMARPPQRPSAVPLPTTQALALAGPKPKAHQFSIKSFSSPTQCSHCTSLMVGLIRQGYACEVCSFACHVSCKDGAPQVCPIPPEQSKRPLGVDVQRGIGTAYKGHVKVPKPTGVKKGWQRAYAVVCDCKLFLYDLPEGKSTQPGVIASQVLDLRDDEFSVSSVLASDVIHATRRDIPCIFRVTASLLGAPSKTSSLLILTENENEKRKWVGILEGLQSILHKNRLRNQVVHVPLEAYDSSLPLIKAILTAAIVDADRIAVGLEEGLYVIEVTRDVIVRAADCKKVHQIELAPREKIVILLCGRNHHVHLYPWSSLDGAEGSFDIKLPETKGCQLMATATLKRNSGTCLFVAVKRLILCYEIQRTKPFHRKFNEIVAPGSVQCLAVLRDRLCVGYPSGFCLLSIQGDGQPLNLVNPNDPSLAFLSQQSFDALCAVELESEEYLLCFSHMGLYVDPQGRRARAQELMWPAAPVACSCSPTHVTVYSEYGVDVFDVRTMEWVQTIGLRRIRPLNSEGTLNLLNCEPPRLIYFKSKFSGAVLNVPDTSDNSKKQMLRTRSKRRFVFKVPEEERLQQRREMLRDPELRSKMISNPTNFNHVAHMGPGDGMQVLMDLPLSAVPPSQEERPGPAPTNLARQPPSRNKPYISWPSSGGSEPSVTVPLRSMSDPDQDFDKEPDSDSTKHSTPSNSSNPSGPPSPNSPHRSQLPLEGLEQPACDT
Sequence of TGFBR2 (P37173 23-567): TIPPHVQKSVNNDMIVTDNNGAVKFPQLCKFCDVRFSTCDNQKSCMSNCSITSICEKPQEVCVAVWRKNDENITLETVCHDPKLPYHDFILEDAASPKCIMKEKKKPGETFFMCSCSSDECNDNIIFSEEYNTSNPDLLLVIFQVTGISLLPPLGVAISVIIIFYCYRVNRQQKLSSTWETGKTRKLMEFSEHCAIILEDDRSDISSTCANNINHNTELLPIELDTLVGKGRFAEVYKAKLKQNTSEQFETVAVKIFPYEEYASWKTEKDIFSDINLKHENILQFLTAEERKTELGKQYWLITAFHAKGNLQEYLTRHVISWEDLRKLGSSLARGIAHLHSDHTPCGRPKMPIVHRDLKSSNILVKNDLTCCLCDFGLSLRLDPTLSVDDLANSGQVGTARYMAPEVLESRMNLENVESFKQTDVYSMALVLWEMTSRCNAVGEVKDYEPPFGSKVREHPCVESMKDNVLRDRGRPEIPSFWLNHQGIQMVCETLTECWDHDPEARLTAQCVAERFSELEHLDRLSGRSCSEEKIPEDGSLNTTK
Sequence of CSNK1E (P49674 whole entry): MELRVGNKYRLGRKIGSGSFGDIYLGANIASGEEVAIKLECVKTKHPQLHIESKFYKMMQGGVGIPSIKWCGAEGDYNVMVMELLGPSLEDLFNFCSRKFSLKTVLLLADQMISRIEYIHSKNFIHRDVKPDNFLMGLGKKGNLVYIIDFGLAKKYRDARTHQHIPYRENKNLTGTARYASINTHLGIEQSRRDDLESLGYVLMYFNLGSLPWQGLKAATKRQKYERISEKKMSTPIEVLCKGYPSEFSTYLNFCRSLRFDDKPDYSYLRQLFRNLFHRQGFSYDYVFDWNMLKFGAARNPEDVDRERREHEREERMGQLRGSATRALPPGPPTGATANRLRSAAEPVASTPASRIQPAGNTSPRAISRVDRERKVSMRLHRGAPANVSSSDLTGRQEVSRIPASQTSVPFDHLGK
Sequence of PIKFYVE (Q9Y2I7 whole entry): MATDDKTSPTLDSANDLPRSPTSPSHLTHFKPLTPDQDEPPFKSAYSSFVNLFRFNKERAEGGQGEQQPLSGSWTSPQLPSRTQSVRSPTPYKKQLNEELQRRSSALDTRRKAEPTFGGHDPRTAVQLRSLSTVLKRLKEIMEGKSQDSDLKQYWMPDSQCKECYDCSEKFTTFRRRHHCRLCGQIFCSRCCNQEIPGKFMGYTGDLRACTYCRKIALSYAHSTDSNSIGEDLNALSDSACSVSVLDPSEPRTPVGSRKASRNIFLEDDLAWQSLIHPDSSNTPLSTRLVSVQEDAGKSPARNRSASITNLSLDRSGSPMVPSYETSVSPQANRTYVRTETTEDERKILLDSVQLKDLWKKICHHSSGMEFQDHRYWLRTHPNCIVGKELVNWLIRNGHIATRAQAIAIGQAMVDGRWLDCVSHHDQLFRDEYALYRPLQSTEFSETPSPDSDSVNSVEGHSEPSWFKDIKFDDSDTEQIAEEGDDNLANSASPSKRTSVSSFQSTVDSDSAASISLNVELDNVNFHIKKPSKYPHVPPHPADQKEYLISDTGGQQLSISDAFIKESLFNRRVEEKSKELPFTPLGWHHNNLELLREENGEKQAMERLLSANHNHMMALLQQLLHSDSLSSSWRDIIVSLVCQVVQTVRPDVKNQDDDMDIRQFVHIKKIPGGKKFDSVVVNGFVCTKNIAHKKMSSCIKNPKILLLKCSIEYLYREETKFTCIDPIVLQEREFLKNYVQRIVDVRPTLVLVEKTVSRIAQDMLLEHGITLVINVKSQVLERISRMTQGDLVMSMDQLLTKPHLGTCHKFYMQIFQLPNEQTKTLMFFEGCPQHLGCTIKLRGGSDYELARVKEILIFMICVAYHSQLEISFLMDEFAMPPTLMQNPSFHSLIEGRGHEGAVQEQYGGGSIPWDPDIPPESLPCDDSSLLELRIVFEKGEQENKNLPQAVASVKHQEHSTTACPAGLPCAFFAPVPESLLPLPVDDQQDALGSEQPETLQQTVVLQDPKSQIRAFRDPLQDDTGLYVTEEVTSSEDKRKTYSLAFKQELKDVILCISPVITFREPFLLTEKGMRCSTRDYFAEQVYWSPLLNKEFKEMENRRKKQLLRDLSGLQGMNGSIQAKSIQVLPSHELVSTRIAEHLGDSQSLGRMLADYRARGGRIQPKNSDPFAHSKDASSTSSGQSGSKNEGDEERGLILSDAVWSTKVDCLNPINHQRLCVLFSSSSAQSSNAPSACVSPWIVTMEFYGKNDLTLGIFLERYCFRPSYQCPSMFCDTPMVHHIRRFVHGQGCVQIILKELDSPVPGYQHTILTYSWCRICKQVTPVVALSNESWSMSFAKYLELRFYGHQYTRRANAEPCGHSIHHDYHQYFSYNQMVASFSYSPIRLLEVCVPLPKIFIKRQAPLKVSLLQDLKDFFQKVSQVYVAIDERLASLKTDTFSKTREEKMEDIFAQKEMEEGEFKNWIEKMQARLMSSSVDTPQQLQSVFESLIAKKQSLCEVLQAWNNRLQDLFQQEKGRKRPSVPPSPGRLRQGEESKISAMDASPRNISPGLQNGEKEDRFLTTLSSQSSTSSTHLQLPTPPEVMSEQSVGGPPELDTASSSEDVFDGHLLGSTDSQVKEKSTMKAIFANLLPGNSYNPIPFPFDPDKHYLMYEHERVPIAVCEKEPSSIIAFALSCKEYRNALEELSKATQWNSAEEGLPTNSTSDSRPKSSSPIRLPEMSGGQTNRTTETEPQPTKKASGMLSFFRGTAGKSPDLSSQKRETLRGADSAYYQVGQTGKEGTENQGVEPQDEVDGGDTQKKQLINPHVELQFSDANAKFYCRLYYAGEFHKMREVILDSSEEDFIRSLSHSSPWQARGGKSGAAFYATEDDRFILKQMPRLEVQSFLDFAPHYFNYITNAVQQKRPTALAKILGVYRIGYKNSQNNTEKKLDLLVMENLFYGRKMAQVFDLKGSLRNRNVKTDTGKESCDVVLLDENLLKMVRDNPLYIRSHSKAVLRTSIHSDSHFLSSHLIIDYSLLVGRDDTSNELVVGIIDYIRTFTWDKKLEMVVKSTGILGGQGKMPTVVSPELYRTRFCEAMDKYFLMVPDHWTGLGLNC
T3 sequence (P23458 583-855 limits assumed): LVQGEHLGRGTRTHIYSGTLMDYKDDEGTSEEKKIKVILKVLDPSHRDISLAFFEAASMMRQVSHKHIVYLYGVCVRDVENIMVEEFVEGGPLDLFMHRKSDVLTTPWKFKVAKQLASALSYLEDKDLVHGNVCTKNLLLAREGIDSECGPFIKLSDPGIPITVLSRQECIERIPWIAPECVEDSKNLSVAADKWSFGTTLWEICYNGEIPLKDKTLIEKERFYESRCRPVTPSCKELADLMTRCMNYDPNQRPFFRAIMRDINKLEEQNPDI

SMILES	TFEB % [1]	DQ Intensity [2]	DQ Spot [2]	KINOMEscan binding PRKD1 [3]	KINOMEscan binding CDC42BPB/MRCKB [4]	KINOMEscan binding CIT [5]	KINOMEscan binding ACVR1B [6]	KINOMEscan binding TGFBR2 [7]	KINOMEscan binding CSNK1E [8]	KINOMEscan binding JAK1(JH2) [9]	KINOMEscan binding PIKFYVE [10]	KINOMEscan binding BMPR1B [11]	KINOMEscan binding MTOR [12]	AK [13]	Nuclear Count [14]
Cc1cc(Nc2nc(-c3cccc(C)n3)nc3ccccc23)ccn1 [GW872411]	5.91%	103.32	114.14	99.4%	0%	0%	73%	0%	31%	81%	53%	0%	73%	69.93	94.17
Clc1cccc(-c2nc(Nc3ccncc3)c3ccccc3n2)c1 [GW873004]	4.68%	102.26	118.51	47%	42%	57%	72%	17%	23%	16%	61%	4%	36%	129.21	66.61
Cc1cccc(-c2nc(Nc3cccc(C(N)=O)c3)c3ccccc3n2)n1 [GW876019]	7.94%	115.76	107.41	64%	32%	45%	83%	15%	15%	78%	16%	0%	35%	199.56	75.33
Cc1cccc(-c2nc(Nc3ccc4c(cnn4C)c3)c3ccccc3n2)n1 [GW876731]	18.65%	96.16	100.57	99.2%	34%	12%	64%	0%	37%	16%	91.5%	0%	0%	73.05	107.18
